In the NIST ThermoML archive (doi:10.1021/je0341413):
Numbers after ± are expanded uncertainties.

What was measured:
[1] = xn = mol fraction of the nth substance listed; conditions: 101.3 kPa, Liquid
[2] = Liquid; for viscosity: 101.3 kPa; for mass density: 101.33 kPa

CCOC(=O)OCC [diethyl carbonate] + CCCO
[1]
Conditions | viscosity [mPa·s]
293.15 K, x1 = 0.0504 | 1.9 ± 0.06
293.15 K, x1 = 0.1007 | 1.662 ± 0.053
293.15 K, x1 = 0.2008 | 1.325 ± 0.042
293.15 K, x1 = 0.3019 | 1.115 ± 0.035
293.15 K, x1 = 0.4004 | 0.998 ± 0.032
293.15 K, x1 = 0.5039 | 0.921 ± 0.029
293.15 K, x1 = 0.6031 | 0.877 ± 0.028
293.15 K, x1 = 0.7007 | 0.84 ± 0.027
293.15 K, x1 = 0.7999 | 0.808 ± 0.026
293.15 K, x1 = 0.9132 | 0.786 ± 0.025
293.15 K, x1 = 0.9531 | 0.785 ± 0.025
293.15 K, x1 = 1 | 0.795 ± 0.025
298.15 K, x1 = 0.0515 | 1.689 ± 0.053
298.15 K, x1 = 0.0993 | 1.482 ± 0.047
298.15 K, x1 = 0.2012 | 1.178 ± 0.037
298.15 K, x1 = 0.3007 | 1.005 ± 0.032
298.15 K, x1 = 0.4026 | 0.904 ± 0.029
298.15 K, x1 = 0.5022 | 0.845 ± 0.027
298.15 K, x1 = 0.6029 | 0.801 ± 0.025
298.15 K, x1 = 0.7041 | 0.762 ± 0.024
298.15 K, x1 = 0.8087 | 0.73 ± 0.023
298.15 K, x1 = 0.9065 | 0.721 ± 0.023
298.15 K, x1 = 0.9523 | 0.729 ± 0.023
298.15 K, x1 = 1 | 0.749 ± 0.024
303.15 K, x1 = 0.0464 | 1.494 ± 0.047
303.15 K, x1 = 0.0963 | 1.315 ± 0.041
303.15 K, x1 = 0.1968 | 1.062 ± 0.033
303.15 K, x1 = 0.2981 | 0.907 ± 0.029
303.15 K, x1 = 0.3987 | 0.818 ± 0.026
303.15 K, x1 = 0.4958 | 0.771 ± 0.024
303.15 K, x1 = 0.5991 | 0.732 ± 0.023
303.15 K, x1 = 0.6967 | 0.703 ± 0.022
303.15 K, x1 = 0.8063 | 0.678 ± 0.021
303.15 K, x1 = 0.908 | 0.674 ± 0.021
303.15 K, x1 = 0.9448 | 0.682 ± 0.022
303.15 K, x1 = 1 | 0.699 ± 0.022
313.15 K, x1 = 0.05 | 1.214 ± 0.038
313.15 K, x1 = 0.1018 | 1.087 ± 0.034
313.15 K, x1 = 0.2001 | 0.911 ± 0.029
313.15 K, x1 = 0.3017 | 0.795 ± 0.025
313.15 K, x1 = 0.3958 | 0.727 ± 0.023
313.15 K, x1 = 0.504 | 0.674 ± 0.021
313.15 K, x1 = 0.6009 | 0.642 ± 0.02
313.15 K, x1 = 0.7032 | 0.624 ± 0.02
313.15 K, x1 = 0.7998 | 0.61 ± 0.019
313.15 K, x1 = 0.8997 | 0.608 ± 0.019
313.15 K, x1 = 0.9468 | 0.612 ± 0.019
313.15 K, x1 = 1 | 0.623 ± 0.02

CCOC(=O)OCC [diethyl carbonate] + CCO
[1]
Conditions | viscosity [mPa·s]
293.15 K, x1 = 0.0503 | 1.098 ± 0.034
293.15 K, x1 = 0.0997 | 1.021 ± 0.032
293.15 K, x1 = 0.198 | 0.906 ± 0.029
293.15 K, x1 = 0.3006 | 0.835 ± 0.026
293.15 K, x1 = 0.4031 | 0.792 ± 0.025
293.15 K, x1 = 0.5031 | 0.77 ± 0.024
293.15 K, x1 = 0.6063 | 0.761 ± 0.024
293.15 K, x1 = 0.6898 | 0.755 ± 0.024
293.15 K, x1 = 0.8066 | 0.759 ± 0.024
293.15 K, x1 = 0.895 | 0.77 ± 0.024
293.15 K, x1 = 0.945 | 0.776 ± 0.025
293.15 K, x1 = 1 | 0.795 ± 0.025
298.15 K, x1 = 0.0496 | 1.05 ± 0.033
298.15 K, x1 = 0.0973 | 0.943 ± 0.03
298.15 K, x1 = 0.1963 | 0.835 ± 0.026
298.15 K, x1 = 0.2985 | 0.771 ± 0.024
298.15 K, x1 = 0.398 | 0.728 ± 0.023
298.15 K, x1 = 0.5057 | 0.714 ± 0.023
298.15 K, x1 = 0.6032 | 0.708 ± 0.022
298.15 K, x1 = 0.7035 | 0.703 ± 0.022
298.15 K, x1 = 0.7999 | 0.702 ± 0.022
298.15 K, x1 = 0.8989 | 0.714 ± 0.023
298.15 K, x1 = 0.9283 | 0.721 ± 0.023
298.15 K, x1 = 1 | 0.749 ± 0.024
303.15 K, x1 = 0.0491 | 0.899 ± 0.028
303.15 K, x1 = 0.0984 | 0.834 ± 0.026
303.15 K, x1 = 0.1952 | 0.754 ± 0.024
303.15 K, x1 = 0.2961 | 0.704 ± 0.022
303.15 K, x1 = 0.3946 | 0.673 ± 0.021
303.15 K, x1 = 0.4859 | 0.661 ± 0.021
303.15 K, x1 = 0.5995 | 0.649 ± 0.021
303.15 K, x1 = 0.6959 | 0.648 ± 0.02
303.15 K, x1 = 0.7862 | 0.649 ± 0.021
303.15 K, x1 = 0.8911 | 0.661 ± 0.021
303.15 K, x1 = 0.9254 | 0.669 ± 0.021
303.15 K, x1 = 1 | 0.699 ± 0.022
313.15 K, x1 = 0.0499 | 0.777 ± 0.025
313.15 K, x1 = 0.102 | 0.74 ± 0.023
313.15 K, x1 = 0.2038 | 0.676 ± 0.021
313.15 K, x1 = 0.3116 | 0.636 ± 0.02
313.15 K, x1 = 0.4001 | 0.613 ± 0.019
313.15 K, x1 = 0.4971 | 0.6 ± 0.019
313.15 K, x1 = 0.6023 | 0.59 ± 0.019
313.15 K, x1 = 0.7058 | 0.591 ± 0.019
313.15 K, x1 = 0.8065 | 0.596 ± 0.019
313.15 K, x1 = 0.9022 | 0.608 ± 0.019
313.15 K, x1 = 0.9518 | 0.616 ± 0.019
313.15 K, x1 = 1 | 0.623 ± 0.02

CCOC(=O)OCC [diethyl carbonate] + CO
[1]
Conditions | viscosity [mPa·s]
293.15 K, x1 = 0.0513 | 0.592 ± 0.019
293.15 K, x1 = 0.1002 | 0.596 ± 0.019
293.15 K, x1 = 0.1972 | 0.608 ± 0.019
293.15 K, x1 = 0.2839 | 0.623 ± 0.02
293.15 K, x1 = 0.4038 | 0.642 ± 0.02
293.15 K, x1 = 0.5 | 0.657 ± 0.021
293.15 K, x1 = 0.5933 | 0.675 ± 0.021
293.15 K, x1 = 0.6417 | 0.685 ± 0.022
293.15 K, x1 = 0.7996 | 0.722 ± 0.023
293.15 K, x1 = 0.9014 | 0.75 ± 0.024
293.15 K, x1 = 0.9709 | 0.782 ± 0.025
293.15 K, x1 = 1 | 0.795 ± 0.025
298.15 K, x1 = 0.0496 | 0.556 ± 0.018
298.15 K, x1 = 0.0996 | 0.558 ± 0.018
298.15 K, x1 = 0.1985 | 0.574 ± 0.018
298.15 K, x1 = 0.2944 | 0.588 ± 0.019
298.15 K, x1 = 0.4014 | 0.603 ± 0.019
298.15 K, x1 = 0.4975 | 0.615 ± 0.019
298.15 K, x1 = 0.6068 | 0.637 ± 0.02
298.15 K, x1 = 0.7087 | 0.658 ± 0.021
298.15 K, x1 = 0.8365 | 0.688 ± 0.022
298.15 K, x1 = 0.9091 | 0.71 ± 0.022
298.15 K, x1 = 0.9598 | 0.731 ± 0.023
298.15 K, x1 = 1 | 0.749 ± 0.024
303.15 K, x1 = 0.049 | 0.518 ± 0.016
303.15 K, x1 = 0.0966 | 0.524 ± 0.017
303.15 K, x1 = 0.1958 | 0.537 ± 0.017
303.15 K, x1 = 0.2824 | 0.548 ± 0.017
303.15 K, x1 = 0.3914 | 0.563 ± 0.018
303.15 K, x1 = 0.4936 | 0.578 ± 0.018
303.15 K, x1 = 0.581 | 0.592 ± 0.019
303.15 K, x1 = 0.6945 | 0.612 ± 0.019
303.15 K, x1 = 0.7349 | 0.62 ± 0.02
303.15 K, x1 = 0.8512 | 0.645 ± 0.02
303.15 K, x1 = 0.9214 | 0.663 ± 0.021
303.15 K, x1 = 1 | 0.699 ± 0.022
313.15 K, x1 = 0.0509 | 0.456 ± 0.015
313.15 K, x1 = 0.0999 | 0.46 ± 0.015
313.15 K, x1 = 0.2009 | 0.475 ± 0.015
313.15 K, x1 = 0.2981 | 0.49 ± 0.016
313.15 K, x1 = 0.4009 | 0.505 ± 0.016
313.15 K, x1 = 0.5056 | 0.524 ± 0.017
313.15 K, x1 = 0.6062 | 0.543 ± 0.017
313.15 K, x1 = 0.7033 | 0.561 ± 0.018
313.15 K, x1 = 0.8055 | 0.584 ± 0.018
313.15 K, x1 = 0.902 | 0.603 ± 0.019
313.15 K, x1 = 0.9448 | 0.61 ± 0.019
313.15 K, x1 = 1 | 0.623 ± 0.02

CCO [ethanol]
[2]
Conditions | mass density [kg/m3] | viscosity [mPa·s]
293.15 K | – | 1.194 ± 0.037
298.15 K | 785 ± 0.5 | 1.105 ± 0.035
303.15 K | – | 0.972 ± 0.031
313.15 K | – | 0.826 ± 0.026

CCO [ethanol] + CCOC(=O)OCC
[1], x2 = 0
Conditions | viscosity [mPa·s]
293.15 K | 1.194 ± 0.037
298.15 K | 1.105 ± 0.035
303.15 K | 0.972 ± 0.031
313.15 K | 0.826 ± 0.026

CO [methanol]
[2]
Conditions | mass density [kg/m3] | viscosity [mPa·s]
293.15 K | – | 0.591 ± 0.019
298.15 K | 786.6 ± 0.5 | 0.553 ± 0.018
303.15 K | – | 0.514 ± 0.016
313.15 K | – | 0.45 ± 0.014

CO [methanol] + CCOC(=O)OCC
[1], x2 = 0
Conditions | viscosity [mPa·s]
293.15 K | 0.591 ± 0.019
298.15 K | 0.553 ± 0.018
303.15 K | 0.514 ± 0.016
313.15 K | 0.45 ± 0.014

CCCCCO [pentan-1-ol]
[2]
Conditions | mass density [kg/m3] | viscosity [mPa·s]
293.15 K | – | 3.979 ± 0.13
298.15 K | 810.9 ± 0.6 | 3.347 ± 0.11
303.15 K | – | 2.932 ± 0.093
313.15 K | – | 2.256 ± 0.072

CCCCCO [pentan-1-ol] + CCOC(=O)OCC
[1], x2 = 0
Conditions | viscosity [mPa·s]
293.15 K | 3.979 ± 0.13
298.15 K | 3.347 ± 0.11
303.15 K | 2.932 ± 0.093
313.15 K | 2.256 ± 0.072

CCCO [propan-1-ol]
[2]
Conditions | mass density [kg/m3] | viscosity [mPa·s]
293.15 K | – | 2.198 ± 0.069
298.15 K | 799.5 ± 0.5 | 1.97 ± 0.062
303.15 K | – | 1.707 ± 0.054
313.15 K | – | 1.361 ± 0.043

CCCO [propan-1-ol] + CCOC(=O)OCC
[1], x2 = 0
Conditions | viscosity [mPa·s]
293.15 K | 2.198 ± 0.069
298.15 K | 1.97 ± 0.062
303.15 K | 1.707 ± 0.054
313.15 K | 1.361 ± 0.043

CC(C)O [propan-2-ol]
[2]
Conditions | mass density [kg/m3] | viscosity [mPa·s]
293.15 K | – | 2.386 ± 0.075
298.15 K | 780.9 ± 0.5 | 2.098 ± 0.067
303.15 K | – | 1.763 ± 0.056
313.15 K | – | 1.325 ± 0.042

CC(C)O [propan-2-ol] + CCOC(=O)OCC
[1], x2 = 0
Conditions | viscosity [mPa·s]
293.15 K | 2.386 ± 0.075
298.15 K | 2.098 ± 0.067
303.15 K | 1.763 ± 0.056
313.15 K | 1.325 ± 0.042
